Columns and labels:
Type in all cases: cell-based, murine
[1] = system: LPS-stimulated production of nitric oxide (NO) in RAW 264.7 cell; test: Inhibition of LPS-induced NO (nitrite) production in RAW264.7 cells, Griess reaction; conditions: RAW 264.7 cells, LPS 100 ng/mL, 24 h, nitrite by Griess, mean ± SD of three replicates
Description: NO, produced from L-arginine by NO synthase, has various biological actions, e.g., as a defense and regulatory molecule for homeostatic equilibrium. However, in pathophysiologic conditions, such as inflammation, there is an increased production of NO by inducible NO synthase (iNOS). Macrophages have been expected to be an origin of inflammation, because they contain various chemical mediators that may be responsible for several inflammatory stages. The inhibitory activity toward NO production, induced by lipopolysaccharides (LPS), by murine macrophage-derived RAW264.7 cells, was assayed.
(§1) A murine macrophage cell line RAW264.7 (BCRC No. 60001) was purchased from the Bioresources Collection and Research Center (BCRC) of the Food Industry Research and Development Institute (Hsinchu, Taiwan). Cells were cultured in plastic dishes containing Dulbecco’s Modified Eagle Medium (DMEM, Sigma, St. Louis, MO, USA) supplemented with 10% fetal bovine serum (FBS, Sigma, St. Louis, MO, USA, USA) in a CO2 incubator (5% CO2 in air) at 37 °C and subcultured every 3 days at a dilution of 1:5 using 0.05% trypsin-0.02% EDTA in Ca^2+-, Mg^2+-free phosphate-buffered saline (DPBS).
NO production was indirectly assessed by measuring the nitrite levels in the cultured media and serum determined by a colorimetric method based on the Griess reaction. The cells were incubated with butanolides (0, 3.125, 6.25, 12.5, 25 and 50 μg/mL) in the presence of LPS (100 ng/mL) at 37 °C for 24 h. Then, cells were dispensed into 96-well plates, and 100 μL of each supernatant was mixed with the same volume of Griess reagent (1% sulfanilamide, 0.1% naphthyl ethylenediamine dihydrochloride and 5% phosphoric acid) and incubated at room temperature for 10 min; the absorbance was measured at 540 nm with a Micro-Reader (Molecular Devices Orleans Drive, Sunnyvale, CA, USA). Serum samples were diluted four times with distilled water and deproteinized by adding 1/20 volume of zinc sulfate (300 g/L) to a final concentration of 15 g/L. After centrifugation at 10,000× g for 5 min at room temperature, 100 μL supernatant was applied to a microtiter plate well, followed by 100 μL of Griess reagent. After 10 min of color development at room temperature, the absorbance was measured at 540 nm with a Micro-Reader. By using sodium nitrite to generate a standard curve, the concentration of nitrite was measured form absorbance at 540 nm.
(§2) IC50 values were estimated using a non-linear regression algorithm (SigmaPlot 8.0; SPSS Inc., Chicago, IL, USA, 2002). Statistical evaluation was carried out by one-way analysis of variance (ANOVA followed by Scheffe’s multiple range tests).

[2] = Cell viability (MTT) of RAW264.7 cells in the presence of LPS; conditions: mouse, RAW264.7 macrophage cells, RAW 264.7 cells, 100 ng/mL LPS, mean ± SD of three replicates, read-out: Cytotoxicity IC50
Method: as §1
(§3) Cells (2 × 105) were cultured in 96-well plate containing DMEM supplemented with 10% FBS for 1 day to become nearly confluent. Then cells were cultured with compounds 1–5 in the presence of 100 ng/mL LPS (lipopolysaccharide) for 24 h. After that, the cells were washed twice with DPBS and incubated with 100 μL of 0.5 mg/mL MTT for 2 h at 37 °C testing for cell viability. The medium was then discarded, and 100 μL dimethyl sulfoxide (DMSO) was added. After 30-min incubation, the absorbance at 570 nm was read using a microplate reader (Molecular Devices, Sunnyvale, CA, USA).
as §2

RAW264.7 cells = test: as above; conditions: RAW 264.7 cells, 100 ng/mL LPS, 24 h, mean ± SD of three replicates, read-out: Cytotoxicity IC50
Method: as §1, §3, §2

Compound	IC50 ([1]; Mus musculus, RAW264.7) [µM]	IC50 at 24 h [2] [µM]	IC50 [1] [µM]	IC50 (RAW264.7 cells) [µM]
CCCCCCCCCC/C=C/[C@@H]1C(=O)O[C@@H](C)[C@H]1O [Compound 1, 3α-((E)-Dodec-1-enyl)-4β-hydroxy-5β-methyldihydrofuran-2-one]	20.1 ± 0.3	78 ± 5.1	–	–
C[C@@H]1O[C@@H](Oc2c(-c3ccc(O)cc3)oc3cc(O)cc(O)c3c2=O)[C@H](O)[C@H](O)[C@H]1OC(=O)/C=C/c1ccc(O)cc1 [Compound 13, 4″-p-coumaroylafzelin]	76.9 ± 7.3	> 86.5	–	–
COc1cc(C[C@H]2COC(=O)[C@@H]2Cc2ccc(O)c(OC)c2)ccc1O [Compound 7, matairesinol]	179 ± 12.1	> 279	–	–
COc1ccc2c(c1)c(CC(=O)O)c(C)n2C(=O)c1ccc(Cl)cc1 [indomethacin, reference compound]	183 ± 5.5	–	–	–
(+)-pinoresinol [Compound 9]	–	–	90.4 ± 8.6	> 279
C#CCCCCCCCCC/C=C1/C(=O)O[C@@H](C)[C@H]1O [Compound 5, (3E,4β,5β)-3-(dodec-11-ynylidene)-4-hydroxy-5-methylbutanolide]	33.4 ± 1	143 ± 1.9	–	–
CCCCCCCCCCC/C=C1/C(=O)O[C@@H](C)[C@H]1O [Compound 3, 3-epilistenolide D2]	4.5 ± 0.1	27.7 ± 1.6	–	–
C#CCCCCCCCCC/C=C1\C(=O)O[C@@H](C)[C@@H]1O [Compound 4, (3Z,4α,5β)-3-(dodec-11-ynylidene)-4-hydroxy-5-methylbutanolide]	21.7 ± 0.4	139 ± 2.8	–	–
Oc1cc(O)c2c(c1)O[C@H](c1ccc(O)c(O)c1)[C@H](O)C2 [Compound 15, epicatechin]	352 ± 37.4	> 517	–	–
CCCCCCCCCCC/C=C1\C(=O)O[C@@H](C)[C@H]1O [Compound 2, 3-epilistenolide D1]	4.1 ± 0.1	32.6 ± 0.5	–	–
COc1cc([C@H]2OC[C@H]3[C@@H]2CO[C@@H]3c2cc(OC)c(O)c(OC)c2)cc(OC)c1O [Compound 8, syringaresinol]	49.7 ± 4.5	> 239	–	–
COc1cc(CC2COCC2Cc2ccc3c(c2)OCO3)ccc1O (stereo not shown) [Compound 6, linderinol]	196 ± 4	> 292	–	–
COc1cc(C2OCC3C(=O)OCC32)ccc1O (stereo not shown) [Compound 10, salicifoliol]	312 ± 14.1	> 400	–	–
C[C@@H]1O[C@@H](Oc2c(-c3ccc(O)cc3)oc3cc(O)cc(O)c3c2=O)[C@H](O)[C@H](O)[C@H]1OC(=O)/C=C\c1ccc(O)cc1 [Compound 12, kaempferol 3-O-α-L-(4″-Z-p-coumaroyl) rhamnoside]	67.9 ± 1.9	> 86.5	–	–
COc1ccc(-c2oc3cc(O)cc(O)c3c(=O)c2OC2OC(C)C(OC(=O)C=Cc3ccc(O)cc3)C(O)C2O)cc1 [Compound 11, 4′-O-methylkaempferol 3-O-α-L-(4″-E-p-coumaroyl)rhamnoside]	62.5 ± 2.2	> 84.5	–	–
Oc1cc(O)c2c(c1)O[C@H](c1ccc(O)c(O)c1)[C@@H](O)C2 [Compound 14, catechin]	414 ± 6.9	> 517	–	–

From publication PMC3676778, “The Effect of the Aerial Part of Lindera akoensis on Lipopolysaccharides (LPS)-Induced Nitric Oxide Production in RAW264.7 Cells” (International Journal of Molecular Sciences, 2013)
